The subject of experiment [1] is JAK1/JAK2-dependent STAT activation. The experiment in a line: EMSA, IL-3 triggered STAT activation in 32Dc11/IL2Rβ cells. Particulars: 10 μg/ml. The class given is cell-based. As to the method:
Electrophoretic Mobility Shift Assays (EMSAs). EMSAs were performed to examine the effects of dimethoxyquinazoline compounds on cytokine-induced STAT activation (Goodman et. al., 1998). […] Cells were collected after 15 minutes and resuspended in lysis buffer (100 mM Tris-HCl pH 8.0, 0.5% NP-40, 10% glycerol, […], 0.1 mM NaVO3, 50 mM NaF, 150 mM NaCl, 1 mM DTT, 3 μg/ml Aprotinin, 2 μg/ml Pepstatin A, 1 μg/ml Leupeptin and 0.2 mM PMSF). Lysates were precleared by centrifugation for 30 min. Cell extracts (approximately 10 μg) were incubated with 2 μg of poly(dI-dC) for 30 minutes, followed by a 30 minutes incubation with 1ng of poly. nucleotide kinase-^32P labeled double stranded DNA oligonucleotide representing the IRF-1 STAT DNA binding sequence (Santa Cruz Biotechnology, Santa Cruz, Calif.). Samples were resolved by non-denaturing PAGE and visualized by autoradiography.

Experiment [2] relates to BALB/c mice. Briefly: IgE/antigen-induced active systemic anaphylaxis model. The class given is in vivo. Particulars: BSA-sensitized mice, two doses of 45 mg/kg before challenge; 8 of 15. The method, then:
FIG. 14E is a graph showing results of a study of the effect of JAK3 inhibitor WHI-P131 on fatal anaphylaxis in mice. BALB/c mice were sensitized with 100 mg/kg bovine serum albumin in 200 μl of the adjuvant aluminum hydroxide gel (Reheis Inc., Berkeley, N.J.), which favors the production of IgE in response to the presented antigen. Ten days later, mice were treated with two doses of WHI-P131 (45 mg/kg) or vehicle 30 minutes apart and then challenged with an i.v. injection of the 10 mg/kg BSA. Cumulative proportions of mice surviving anaphylaxis-free are shown according to the time after the antigen challenge.
To induce passive systemic anaphylaxis, BALB/c mice were sensitized with […] DNP-IgE intravenously. At 24 hours DNP-BSA (2 mg) was administered intravenously with 0.5% Evans blue (200 μl). For assessment of vascular leak, animals were sacrificed 30 minutes after the antigen challenge and their foot pads were examined for blue coloration. Histamine levels in plasma were measured 5 minutes after the antigen challenge. […] For histopathologic evaluation of tissue mast cell degranulation, ears of mice were removed 1 hour after the DNP-BSA injection and fixed in 10 percent buffered formalin. […]

For the next experiment, the target named is T1, recombinant JAK1 (Homo sapiens, UniProt P23458).
T1 construct: made in house; host or cells: Sf21 insect cells, baculovirus
The experiment in a line: Immune complex kinase assay, recombinant JAK1. The note with it: FIG. 6C & D. The class given is biochemical. From the text: (§1) Immune Complex Kinase Assays.

A further experiment deals with T2, BTK (Homo sapiens, UniProt Q06187).
T2 construct: made in house; host or cells: Sf21 insect cells, baculovirus
Briefly: Immune complex kinase assay, BTK from Sf21 cells. The class given is biochemical. Particulars: concentrations as high as 350 μM.
Excerpt: as §1

The subject of experiment [3] is mouse bone marrow mast cells. The note with it: data not shown.
Experiment [4] has as its system BALB/c mice. Briefly: Passive cutaneous anaphylaxis model. The class given is in vivo. The note with it: 25 mg/kg i.p. dose level. As to the method:
FIG. 14A is a graph showing the effects of WHI-P131 on anaphylaxis-associated vascular hyperpermeability, examined by evaluating the cutaneous extravasation of albumin-bound Evans blue dye in mice (n=12). The plasma exudation indices were determined for vehicle treated as well as WHI-P131 treated mice, as described in the Examples. To study the effect of WHI-P131 on anaphylaxis, IgE sensitized mice were injected with two consecutive doses of 10 or 25 mg/kg WHI-P131 at 90 minutes before and 30 minutes before the antigen challenge, respectively. Mice were then challenged with 100 μg DNP-BSA in 2% Evans blue dye and the plasma exudation indices were determined. […] The data are expressed as plasma exudation index (times increase in optical density over PBS treated ears. The mean OD (at 620 nm) of vehicle treated ears was 0.22±0.04 before and 0.918±0.05 after the IgE/antigen challenge. *p<0.05 compared to vehicle treated controls.
After 20 hours, mice were treated with WHI-P131 (10 or 25 mg/kg i.p.) twice at 1 hour intervals prior to the antigen challenge. […] For quantitation of Evans blue dye extravasation as a measure of anaphylaxis-associated vascular hyperpermeability, 8 mm skin specimens were removed from the ears of mice, minced in 2 ml formamide and incubated at 80° C. for 2 hours in water bath to extract the dye. The absorbance was read at 620 nm. […]

In a further experiment the test system is RBL-2H3 mast cells. The experiment in a line: IgE/antigen-induced degranulation and mediator release. Particulars: 1 h preincubation, DNP-BSA challenge; at ≧30 μM. The format is cell-based, rat. From the text:
Vehicle treated control RBL-2H3 cells released 45.1±3.1% of their hexosaminidase contents after DNP-BSA challenge. […] Vehicle treated control cells released 11.3±1.3 pg LTC4, and 160±33.0 pg TNFα/10^6 mast cells. The results on LTC4 and TNFα release are expressed as percent of maximum control release from vehicle treated control mast cells. The data points represent the mean±SEM values obtained from 3-6 independent experiments. […] *P<0.05 and **P<0.0001 compared to control as determined by Student's t test.
Supernatants were removed and saved.

Experimental findings from US6452005B1, “JAK-3 inhibitors for treating allergic disorders” (Parker Hughes Institute, priority 1999, dated 2002) are described below.

T1 sequence (P23458 whole entry): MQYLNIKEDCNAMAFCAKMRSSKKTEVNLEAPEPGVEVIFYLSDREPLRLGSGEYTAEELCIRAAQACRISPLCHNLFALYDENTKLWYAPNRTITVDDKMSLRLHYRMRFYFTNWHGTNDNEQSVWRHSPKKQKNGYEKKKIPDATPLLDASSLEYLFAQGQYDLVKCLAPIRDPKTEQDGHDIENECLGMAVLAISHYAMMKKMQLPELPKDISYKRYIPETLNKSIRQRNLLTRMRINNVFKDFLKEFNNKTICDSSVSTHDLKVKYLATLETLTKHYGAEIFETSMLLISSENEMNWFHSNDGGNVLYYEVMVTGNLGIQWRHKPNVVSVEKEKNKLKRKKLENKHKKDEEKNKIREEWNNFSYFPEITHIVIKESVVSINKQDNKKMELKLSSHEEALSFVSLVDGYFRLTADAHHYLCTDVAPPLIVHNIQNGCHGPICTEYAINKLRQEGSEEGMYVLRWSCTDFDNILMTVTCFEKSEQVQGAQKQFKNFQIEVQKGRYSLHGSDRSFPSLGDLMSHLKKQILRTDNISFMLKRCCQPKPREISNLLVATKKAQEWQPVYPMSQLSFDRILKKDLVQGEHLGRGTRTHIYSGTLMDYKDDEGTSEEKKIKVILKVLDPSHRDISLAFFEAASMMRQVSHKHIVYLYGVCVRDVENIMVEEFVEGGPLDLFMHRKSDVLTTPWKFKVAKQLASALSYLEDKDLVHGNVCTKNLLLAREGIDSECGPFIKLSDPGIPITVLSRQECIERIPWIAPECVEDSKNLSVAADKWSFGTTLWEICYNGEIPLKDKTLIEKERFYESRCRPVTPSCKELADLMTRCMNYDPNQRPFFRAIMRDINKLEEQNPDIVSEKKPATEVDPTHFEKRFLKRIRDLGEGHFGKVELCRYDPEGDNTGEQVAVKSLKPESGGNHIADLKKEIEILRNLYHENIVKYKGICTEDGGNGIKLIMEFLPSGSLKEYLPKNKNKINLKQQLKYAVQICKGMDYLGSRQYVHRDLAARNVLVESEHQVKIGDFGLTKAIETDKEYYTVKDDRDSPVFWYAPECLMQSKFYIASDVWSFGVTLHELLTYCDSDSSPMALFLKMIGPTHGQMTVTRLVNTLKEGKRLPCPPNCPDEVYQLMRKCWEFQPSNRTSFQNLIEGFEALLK
T2 sequence (Q06187 whole entry, species assumed): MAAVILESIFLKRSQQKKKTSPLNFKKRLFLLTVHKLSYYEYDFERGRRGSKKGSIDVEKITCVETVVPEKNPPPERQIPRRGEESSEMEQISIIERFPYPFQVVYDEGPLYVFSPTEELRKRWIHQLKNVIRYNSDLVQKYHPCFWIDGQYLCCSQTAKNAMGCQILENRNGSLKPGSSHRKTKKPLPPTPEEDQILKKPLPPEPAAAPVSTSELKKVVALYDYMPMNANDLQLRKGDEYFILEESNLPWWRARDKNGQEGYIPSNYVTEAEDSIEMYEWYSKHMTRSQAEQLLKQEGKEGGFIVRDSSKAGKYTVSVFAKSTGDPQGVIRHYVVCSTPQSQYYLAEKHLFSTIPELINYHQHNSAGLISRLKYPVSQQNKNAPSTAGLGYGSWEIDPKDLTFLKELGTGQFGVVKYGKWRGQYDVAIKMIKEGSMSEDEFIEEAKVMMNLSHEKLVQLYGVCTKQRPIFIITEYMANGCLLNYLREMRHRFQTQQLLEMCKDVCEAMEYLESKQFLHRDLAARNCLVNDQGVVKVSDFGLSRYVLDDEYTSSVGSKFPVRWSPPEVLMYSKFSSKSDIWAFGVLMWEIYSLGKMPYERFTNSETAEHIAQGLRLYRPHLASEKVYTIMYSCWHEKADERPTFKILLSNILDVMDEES

For the compound `COc1cc2ncnc(Nc3ccc(O)cc3)c2cc1OC` [WHI-P131, 4-(4′-Hydroxylphenyl)-amino-6,7-dimethoxyquinazoline], the “JAK1/JAK2-dependent STAT activation after stimulation with IL-3” value in experiment [1] is “did not affect”. The “mice surviving without any signs of anaphylaxis” value in the experiment with BALB/c mice [2] stood at 53%. For the same compound, the “inhibitory activity against recombinant JAK1” value on recombinant JAK1 was “did not exhibit any detectable inhibitory activity”. Besides, on BTK, the “effect on enzymatic activity of BTK” value is “did not affect”. Also, in experiment [3], the “IgE receptor/FcεRI-mediated release of LTC4” value is “markedly reduced” and the “IgE receptor/FcεRI-mediated release of histamine” value is “markedly reduced”. For the same compound, in the experiment on BALB/c mice [4], the “inhibition of IgE/antigen induced plasma exudation (Evans blue extravasation)” value was 70%. Also, in the experiment with RBL-2H3 mast cells, the LTC4 release result is on record as “near to complete inhibition”, the TNFα release entry was “near to complete inhibition” and the “β-hexosaminidase release (degranulation)” value is listed as “near to complete inhibition”.
